Source: paper PMC8632988, “Inhibition of SYK and cSrc kinases can protect bone and cartilage in preclinical models of osteoarthritis and rheumatoid arthritis” (Scientific Reports, 2021)
Values joined by “and” are separate entries in the source; they are usually repeats but may differ in a detail not shown here. Identical values can stand only once.

Legend:
SYK = SYK (Homo sapiens, UniProt P43405); assay: Kinase selectivity profile assay; assay type: biochemical; design: purchased Reaction Biology Corporation; conditions: 500 nM; relative to DMSO; read-out: Residual enzymatic activity
Excerpt: Kinase activity data was expressed as the percent remaining kinase activity in test samples compared to vehicle (dimethyl sulfoxide) reactions based on the radioactivity of reaction products (see Table S2). Experiment was replicated twice.

TIE2/TEK = molecular target: T1, TIE2/TEK (Homo sapiens, UniProt Q02763); assay: Kinase selectivity profile assay; assay type: biochemical; conditions: 500 nM, relative to DMSO
T1 construct: purchased Reaction Biology Corporation
Outline: (§1)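 Radiometric kinase assay run by a standard protocol. Unbound phosphate was removed by washing filters in phosphoric acid, and product radioactivity gave percent remaining kinase activity versus DMSO vehicle reactions. Run in duplicate.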

GSK3b = molecular target: T2, GSK3b (Homo sapiens, UniProt P49841); assay: Kinase selectivity profile assay; assay type: biochemical; conditions: 500 nM; relative to DMSO; read-out: Residual enzymatic activity
T2 construct: purchased Reaction Biology Corporation
Outline: as §1

FAK/PTK2 = molecular target: T3, FAK/PTK2 (Homo sapiens, UniProt Q05397); assay: Kinase selectivity profile assay; assay type: biochemical; conditions: 500 nM; relative to DMSO; read-out: Residual enzymatic activity
T3 construct: purchased Reaction Biology Corporation
Outline: as §1

PAK4 = molecular target: T4, PAK4 (Homo sapiens, UniProt O96013); assay: Kinase selectivity profile assay; assay type: biochemical; conditions: 500 nM; relative to DMSO; read-out: Residual enzymatic activity
T4 construct: purchased Reaction Biology Corporation
Outline: as §1

p70S6Kb/RPS6KB2 = molecular target: T5, p70S6Kb/RPS6KB2 (Homo sapiens, UniProt Q9UBS0); assay: Kinase selectivity profile assay; assay type: biochemical; conditions: 500 nM; relative to DMSO; read-out: Residual enzymatic activity
T5 construct: purchased Reaction Biology Corporation
Outline: as §1

MLCK/MYLK = molecular target: T6, MLCK/MYLK (Homo sapiens, UniProt Q15746); assay: Kinase selectivity profile assay; assay type: biochemical; conditions: 500 nM; relative to DMSO; read-out: Residual enzymatic activity
T6 construct: purchased Reaction Biology Corporation
Outline: as §1

TESK1 = molecular target: T7, TESK1 (Homo sapiens, UniProt Q15569); assay: Kinase selectivity profile assay; assay type: biochemical; conditions: 500 nM; relative to DMSO; read-out: Residual enzymatic activity
T7 construct: purchased Reaction Biology Corporation
Outline: as §1

HIPK2 = molecular target: T8, HIPK2 (Homo sapiens, UniProt Q9H2X6); assay: Kinase selectivity profile assay; assay type: biochemical; conditions: 500 nM; relative to DMSO; read-out: Residual enzymatic activity
T8 construct: purchased Reaction Biology Corporation
Outline: as §1

DCAMKL1 = molecular target: T9, DCAMKL1 (Homo sapiens, UniProt O15075); assay: Kinase selectivity profile assay; assay type: biochemical; conditions: 500 nM; relative to DMSO; read-out: Residual enzymatic activity
T9 construct: purchased Reaction Biology Corporation
Outline: as §1

KHS/MAP4K5 = molecular target: T10, KHS/MAP4K5 (Homo sapiens, UniProt Q9Y4K4); assay: Kinase selectivity profile assay; assay type: biochemical; conditions: 500 nM; relative to DMSO; read-out: Residual enzymatic activity
T10 construct: purchased Reaction Biology Corporation
Outline: as §1

NEK7 = molecular target: T11, NEK7 (Homo sapiens, UniProt Q8TDX7); assay: Kinase selectivity profile assay; assay type: biochemical; conditions: 500 nM; relative to DMSO; read-out: Residual enzymatic activity
T11 construct: purchased Reaction Biology Corporation
Outline: as §1

IKKe/IKBKE = molecular target: T12, IKKe/IKBKE (Homo sapiens, UniProt Q14164); assay: Kinase selectivity profile assay; assay type: biochemical; conditions: 500 nM; relative to DMSO; read-out: Residual enzymatic activity
T12 construct: purchased Reaction Biology Corporation
Outline: as §1

EPHB3 = molecular target: T13, EPHB3 (Homo sapiens, UniProt P54753); assay: Kinase selectivity profile assay; assay type: biochemical; conditions: 500 nM, relative to DMSO
T13 construct: purchased Reaction Biology Corporation
Outline: as §1

MLCK2/MYLK2 = molecular target: T14, MLCK2/MYLK2 (Homo sapiens, UniProt Q9H1R3); assay: Kinase selectivity profile assay; assay type: biochemical; conditions: 500 nM; relative to DMSO; read-out: Residual enzymatic activity
T14 construct: purchased Reaction Biology Corporation
Outline: as §1

COT1/MAP3K8 = molecular target: T15, COT1/MAP3K8 (Homo sapiens, UniProt P41279); assay: Kinase selectivity profile assay; assay type: biochemical; conditions: 500 nM; relative to DMSO; read-out: Residual enzymatic activity
T15 construct: purchased Reaction Biology Corporation
Outline: as §1

MEK1 = molecular target: T16, MEK1 (Homo sapiens, UniProt Q02750); assay: Kinase selectivity profile assay; assay type: biochemical; conditions: 500 nM, relative to DMSO; for remaining activity at 0.5 µM: read-out: Residual enzymatic activity
T16 construct: purchased Reaction Biology Corporation
Outline: as §1

EPHA5 = molecular target: T17, EPHA5 (Homo sapiens, UniProt P54756); assay: Kinase selectivity profile assay; assay type: biochemical; conditions: 500 nM, relative to DMSO
T17 construct: purchased Reaction Biology Corporation
Outline: as §1

CHK2 = molecular target: T18, CHK2 (Homo sapiens, UniProt O96017); assay: Kinase selectivity profile assay; assay type: biochemical; conditions: 500 nM; relative to DMSO; read-out: Residual enzymatic activity
T18 construct: purchased Reaction Biology Corporation
Outline: as §1

[1] = Pharmacokinetics after single oral administration to rabbits; assay type: in vivo, rabbit; conditions: single oral 50 mg/kg
Description: Experiments were performed at ChemPartner, Shanghai, China and approved by Institutional Ethics Committee (IEC) of ChemPartner. Male Wistar 10–12 weeks old rats with body weights of 185–220 g and male New Zealand rabbits with body weights of 2.0–2.3 kg were purchased from Shanghai SLAC Laboratory Animal Co., Ltd. MT-SYK-03 was administered to the three groups of rats (six rats per group) via oral gavage at 10 mL/kg concentration, and in rabbits 5 mL/kg concentration. Blood samples were kept on ice and centrifuged (2000 g, 4 ℃, 5 min) within 15 min post sampling.

rat primary chondrocytes = assay: Hypertrophic-like changes in IL-1β treated primary chondrocytes; assay type: cell-based; conditions: for Relative fold expression, aggrecan / Relative fold expression, type II collagen: control = 1
Description: The experiment was performed at Atlantic Bone Screen, France. To isolate primary chondrocytes, Sprague Dawley 3 weeks old rats were euthanized and their hind limbs were collected. Knee cartilage shavings were digested with collagenase in serum-free Dulbecco’s Modified Eagle’s Medium (DMEM). Once digested, the cell suspension was centrifuged and resuspended in DMEM containing 10% fetal bovine serum (FBS). Then the cells were plated on tissue culture plastic at a density of 10 000 cells∙cm^−2 and were amplified in monolayer in culture medium (DMEM/FCS-10% supplemented with HEPES (25 mM)) until passage 1 and frozen at − 80 °C. Before study rat’s chondrocytes were seeded and cultured in monolayers in 12-well plates for 24 h. After that the cells were treated for three days with IL-1β (10 ng/mL) and MT-SYK-03; […] and vehicle (DMSO, 0.3% in cell medium) controls were also carried out in triplicate. At the end of the treatment, chondrocytes were lysed, and total RNA was purified using the NucleoSpin RNA II kit (Macherey Nagel). Total RNAs (2 μg) were retro-transcribed using M-MLV RT (Lifetechnologies) and obtained cDNAs (10 ng) were used for qPCR to determine steady-state levels of type II collagen and aggrecan mRNAs (levels of RPL19 and β-actin mRNAs were used as controls). Each reaction was set up as follows: 5 μL of iQ SYBR Green Supermix (Biorad, ref 1,708,882), 0.6 μL of forward primer (5 μM), and 0.6 μL of reverse primer (5 μM), 1.8 μL H2O, and 2 μL of cDNA. All qPCRs (72 qPCRs per marker) were run on a DNA Engine Thermal Cycler Chromo 4 in triplicates and analyzed using REST software.

[2] = male, New Zealand, rabbit, plasma
[3] = read-out: Residual enzymatic activity

T16 sequence (Q02750 whole entry): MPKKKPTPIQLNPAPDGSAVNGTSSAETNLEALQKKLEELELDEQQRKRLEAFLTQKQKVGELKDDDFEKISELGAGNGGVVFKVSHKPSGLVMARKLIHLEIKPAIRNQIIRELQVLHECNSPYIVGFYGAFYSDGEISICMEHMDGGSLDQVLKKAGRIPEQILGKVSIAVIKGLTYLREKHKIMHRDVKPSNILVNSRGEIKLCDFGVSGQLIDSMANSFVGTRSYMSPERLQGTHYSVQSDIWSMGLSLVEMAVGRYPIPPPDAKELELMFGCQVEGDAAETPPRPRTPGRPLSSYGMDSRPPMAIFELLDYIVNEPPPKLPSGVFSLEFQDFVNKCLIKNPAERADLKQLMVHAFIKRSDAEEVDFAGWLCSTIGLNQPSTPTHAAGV
T18 sequence (O96017 whole entry): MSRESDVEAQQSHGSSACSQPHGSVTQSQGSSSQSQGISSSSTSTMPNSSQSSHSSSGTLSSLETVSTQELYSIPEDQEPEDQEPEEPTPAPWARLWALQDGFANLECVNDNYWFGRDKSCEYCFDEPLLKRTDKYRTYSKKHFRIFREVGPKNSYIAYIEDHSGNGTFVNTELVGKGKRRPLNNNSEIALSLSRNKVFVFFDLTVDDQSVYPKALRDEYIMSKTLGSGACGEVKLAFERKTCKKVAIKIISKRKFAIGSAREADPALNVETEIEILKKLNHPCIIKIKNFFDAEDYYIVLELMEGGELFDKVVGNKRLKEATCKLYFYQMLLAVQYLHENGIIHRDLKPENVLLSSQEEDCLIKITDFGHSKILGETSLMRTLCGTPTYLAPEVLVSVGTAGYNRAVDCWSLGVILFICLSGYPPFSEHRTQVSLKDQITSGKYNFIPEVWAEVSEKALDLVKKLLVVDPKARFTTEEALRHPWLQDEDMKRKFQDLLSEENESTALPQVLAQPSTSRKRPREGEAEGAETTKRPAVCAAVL
T15 sequence (P41279 whole entry): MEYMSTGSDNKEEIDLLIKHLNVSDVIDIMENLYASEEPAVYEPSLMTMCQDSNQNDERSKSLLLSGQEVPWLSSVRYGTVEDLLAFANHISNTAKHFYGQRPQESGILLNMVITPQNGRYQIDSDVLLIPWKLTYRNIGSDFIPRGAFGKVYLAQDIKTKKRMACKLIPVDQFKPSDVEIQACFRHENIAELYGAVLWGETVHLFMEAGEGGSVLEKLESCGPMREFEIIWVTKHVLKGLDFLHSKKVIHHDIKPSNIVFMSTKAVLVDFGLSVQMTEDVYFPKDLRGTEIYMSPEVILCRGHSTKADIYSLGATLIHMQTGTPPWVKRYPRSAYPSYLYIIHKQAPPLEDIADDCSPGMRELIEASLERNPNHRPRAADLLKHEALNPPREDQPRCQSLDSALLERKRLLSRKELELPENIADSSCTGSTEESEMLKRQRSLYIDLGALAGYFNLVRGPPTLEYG
T5 sequence (Q9UBS0 whole entry): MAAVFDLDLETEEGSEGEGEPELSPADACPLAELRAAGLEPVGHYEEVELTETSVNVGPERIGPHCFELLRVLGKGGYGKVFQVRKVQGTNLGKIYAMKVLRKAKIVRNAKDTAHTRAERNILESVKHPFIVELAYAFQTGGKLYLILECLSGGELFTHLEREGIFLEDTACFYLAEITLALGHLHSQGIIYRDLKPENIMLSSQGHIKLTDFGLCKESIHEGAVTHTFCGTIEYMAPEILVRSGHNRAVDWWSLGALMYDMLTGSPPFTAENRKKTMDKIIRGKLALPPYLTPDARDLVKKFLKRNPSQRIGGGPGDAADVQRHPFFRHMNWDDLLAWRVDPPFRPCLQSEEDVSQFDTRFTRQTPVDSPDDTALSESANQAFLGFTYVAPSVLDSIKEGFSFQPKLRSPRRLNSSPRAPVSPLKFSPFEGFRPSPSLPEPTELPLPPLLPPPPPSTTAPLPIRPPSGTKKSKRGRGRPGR
T14 sequence (Q9H1R3 whole entry): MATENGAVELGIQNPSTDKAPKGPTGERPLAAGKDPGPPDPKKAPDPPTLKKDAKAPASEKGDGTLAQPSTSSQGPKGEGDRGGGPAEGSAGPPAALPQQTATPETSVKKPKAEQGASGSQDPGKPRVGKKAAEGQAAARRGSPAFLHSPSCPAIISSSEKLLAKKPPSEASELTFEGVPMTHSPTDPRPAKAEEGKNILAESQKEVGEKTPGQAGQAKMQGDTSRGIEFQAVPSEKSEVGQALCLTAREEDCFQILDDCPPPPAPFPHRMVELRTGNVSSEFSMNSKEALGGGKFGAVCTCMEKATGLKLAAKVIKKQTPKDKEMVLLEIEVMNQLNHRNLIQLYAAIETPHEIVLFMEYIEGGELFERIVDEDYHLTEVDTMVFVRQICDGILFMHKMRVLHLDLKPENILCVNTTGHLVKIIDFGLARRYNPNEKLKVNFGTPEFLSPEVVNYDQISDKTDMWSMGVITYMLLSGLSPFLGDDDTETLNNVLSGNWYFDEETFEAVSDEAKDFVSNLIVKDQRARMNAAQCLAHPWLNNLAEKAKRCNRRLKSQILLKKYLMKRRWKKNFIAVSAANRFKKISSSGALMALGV
T3 sequence (Q05397 whole entry): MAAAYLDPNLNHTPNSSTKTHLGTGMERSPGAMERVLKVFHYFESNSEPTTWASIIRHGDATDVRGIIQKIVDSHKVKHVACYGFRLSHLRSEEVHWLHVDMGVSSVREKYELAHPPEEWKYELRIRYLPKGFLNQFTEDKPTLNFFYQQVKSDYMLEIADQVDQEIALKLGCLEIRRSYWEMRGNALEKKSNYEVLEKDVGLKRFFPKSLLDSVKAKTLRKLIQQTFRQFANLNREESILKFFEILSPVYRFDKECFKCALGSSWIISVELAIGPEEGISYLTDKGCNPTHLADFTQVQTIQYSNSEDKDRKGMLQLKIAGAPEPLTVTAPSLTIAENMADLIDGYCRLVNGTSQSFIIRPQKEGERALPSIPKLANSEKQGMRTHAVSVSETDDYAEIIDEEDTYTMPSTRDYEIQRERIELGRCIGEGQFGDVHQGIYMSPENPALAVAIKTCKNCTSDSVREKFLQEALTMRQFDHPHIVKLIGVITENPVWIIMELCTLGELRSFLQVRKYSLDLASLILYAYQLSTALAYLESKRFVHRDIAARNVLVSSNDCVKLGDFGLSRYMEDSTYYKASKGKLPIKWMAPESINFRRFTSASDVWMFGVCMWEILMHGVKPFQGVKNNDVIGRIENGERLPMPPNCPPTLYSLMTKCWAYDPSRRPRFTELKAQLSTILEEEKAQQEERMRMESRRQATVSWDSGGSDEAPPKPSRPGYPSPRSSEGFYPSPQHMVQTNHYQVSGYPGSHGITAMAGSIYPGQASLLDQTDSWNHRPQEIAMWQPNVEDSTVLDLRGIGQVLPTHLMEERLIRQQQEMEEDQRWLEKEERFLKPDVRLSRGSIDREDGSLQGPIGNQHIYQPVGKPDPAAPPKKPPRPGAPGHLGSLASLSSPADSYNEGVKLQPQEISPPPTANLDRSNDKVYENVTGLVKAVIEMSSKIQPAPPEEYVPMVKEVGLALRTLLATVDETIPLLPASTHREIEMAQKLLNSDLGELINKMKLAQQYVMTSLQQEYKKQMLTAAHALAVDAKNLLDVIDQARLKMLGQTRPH
T17 sequence (P54756 25-1037): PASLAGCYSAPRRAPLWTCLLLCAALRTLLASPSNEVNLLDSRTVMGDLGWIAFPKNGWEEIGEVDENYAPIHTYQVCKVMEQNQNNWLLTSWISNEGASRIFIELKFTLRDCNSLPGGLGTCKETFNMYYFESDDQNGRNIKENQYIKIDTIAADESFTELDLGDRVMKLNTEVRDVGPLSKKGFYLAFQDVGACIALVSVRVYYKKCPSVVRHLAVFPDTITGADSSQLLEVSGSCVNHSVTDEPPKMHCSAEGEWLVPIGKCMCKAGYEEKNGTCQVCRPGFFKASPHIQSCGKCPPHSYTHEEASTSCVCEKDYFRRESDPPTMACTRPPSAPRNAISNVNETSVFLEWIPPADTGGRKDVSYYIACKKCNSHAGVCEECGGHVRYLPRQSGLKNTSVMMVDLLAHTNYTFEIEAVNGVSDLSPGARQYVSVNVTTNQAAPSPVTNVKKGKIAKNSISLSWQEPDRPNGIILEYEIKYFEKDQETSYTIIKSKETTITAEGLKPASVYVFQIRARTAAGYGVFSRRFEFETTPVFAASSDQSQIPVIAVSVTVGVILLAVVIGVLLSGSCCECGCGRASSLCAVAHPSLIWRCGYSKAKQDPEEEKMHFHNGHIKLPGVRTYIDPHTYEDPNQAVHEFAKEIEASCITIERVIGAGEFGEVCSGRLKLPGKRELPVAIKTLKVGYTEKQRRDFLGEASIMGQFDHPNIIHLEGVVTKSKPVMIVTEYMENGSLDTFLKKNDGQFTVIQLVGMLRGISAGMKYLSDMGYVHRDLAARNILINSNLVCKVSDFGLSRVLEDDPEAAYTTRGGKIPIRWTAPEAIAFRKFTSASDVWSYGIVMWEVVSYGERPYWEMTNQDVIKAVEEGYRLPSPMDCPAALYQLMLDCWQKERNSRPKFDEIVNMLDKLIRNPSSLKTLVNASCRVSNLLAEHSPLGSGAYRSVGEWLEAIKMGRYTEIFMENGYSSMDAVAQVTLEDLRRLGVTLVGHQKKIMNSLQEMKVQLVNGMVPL
T11 sequence (Q8TDX7 whole entry): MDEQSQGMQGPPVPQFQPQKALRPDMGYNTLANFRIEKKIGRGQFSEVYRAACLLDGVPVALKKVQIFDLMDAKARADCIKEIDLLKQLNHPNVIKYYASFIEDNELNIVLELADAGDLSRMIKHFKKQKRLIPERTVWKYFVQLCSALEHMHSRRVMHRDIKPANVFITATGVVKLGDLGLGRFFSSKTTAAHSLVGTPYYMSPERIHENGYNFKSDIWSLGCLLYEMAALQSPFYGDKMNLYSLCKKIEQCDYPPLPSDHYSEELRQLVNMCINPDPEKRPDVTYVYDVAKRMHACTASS

| Structure (SMILES) | remaining activity at 0.5 µM (GSK3b) | remaining activity at 0.5 µM (FAK/PTK2) | remaining activity at 0.5 µM (PAK4) | remaining activity at 0.5 µM (p70S6Kb/RPS6KB2) | remaining activity at 0.5 µM (MLCK/MYLK) | remaining activity at 0.5 µM (TESK1) | remaining activity at 0.5 µM (HIPK2) | remaining activity at 0.5 µM (DCAMKL1) | remaining activity at 0.5 µM (KHS/MAP4K5) | remaining activity at 0.5 µM (NEK7) | remaining activity at 0.5 µM (IKKe/IKBKE) | remaining activity at 0.5 µM (MLCK2/MYLK2) | remaining activity at 0.5 µM (COT1/MAP3K8) | remaining activity at 0.5 µM (MEK1) | remaining activity at 0.5 µM (CHK2) | further results |
| --- | --- | --- | --- | --- | --- | --- | --- | --- | --- | --- | --- | --- | --- | --- | --- | --- |
| COc1cc(Nc2ncnc(Nc3cc4c(cn3)NC(=O)C(C)(C)O4)n2)cc(OC)c1OC [MT-SYK-03] | 82.4% | 87.4% | 92.1% | 91.4% | 96.2% | 94.5% | 103% | 97.6% | 91.8% | 95.9% | 77.5% | 105% | 90.4% | 107% | 95% | remaining activity at 0.5 µM (SYK): 57.4%; Residual enzymatic activity (TIE2/TEK): 92.9%; Residual enzymatic activity (EPHB3): 94.2%; Residual enzymatic activity (MEK1): did not inhibit any; Residual enzymatic activity (EPHA5): 76.4%; AUC(0-inf) [1, 2]: 121 µg·h/mL; Cmax [1, 2]: 8570 ng/mL and 14.1 µM; Tmax [1, 2]: 6 ± 2.19 h; k el [1, 2]: 2.67e-05 s⁻¹; AUC ([1]; male, New Zealand, rabbit, plasma, read-out: AUC48): 119 µg·h/mL; MRT24 [1]: 9.2 ± 0.66 h; τ1/2 [1]: 7.41 ± 1.32 h; Aggrecan gene expression (rat primary chondrocytes; IL-1β 10 ng/mL, three days): increased; Type II collagen gene expression (rat primary chondrocytes; IL-1β 10 ng/mL, three days): increased; Relative fold expression, aggrecan (rat primary chondrocytes; IL-1β + MT-SYK-03 0.4 μM): 0.20; Relative fold expression, type II collagen (rat primary chondrocytes; IL-1β + MT-SYK-03 0.4 μM): 0.12; Relative fold expression, aggrecan (rat primary chondrocytes; IL-1β + MT-SYK-03 2 μM): 0.42; Relative fold expression, type II collagen (rat primary chondrocytes; IL-1β + MT-SYK-03 2 μM): 0.12; Relative fold expression, aggrecan (rat primary chondrocytes; IL-1β + MT-SYK-03 10 μM): 0.46; Relative fold expression, type II collagen (rat primary chondrocytes; IL-1β + MT-SYK-03 10 μM): 0.09 |
| COc1cc(Nc2ncc(F)c(Nc3ccc4c(n3)NC(=O)C(C)(C)O4)n2)cc(OC)c1OC [R406, reference compound] | 37.9% | 29.7% | 53.9% | 74.6% | 90.5% | 85.7% | 94.9% | 84.2% | 87.1% | 62.3% | 16.1% | 89.2% | 100% | 87.2% | 50.7% | remaining activity at 0.5 µM (TIE2/TEK; [3]): 69.9%; remaining activity at 0.5 µM (EPHB3; [3]): 84.4%; remaining activity at 0.5 µM (EPHA5; [3]): 60.9% |
